Measurements: US8586530B2, “Modulation of inhibition of ferrochelatase by N-methyl protoporphyrin” (University of South Florida, priority 2006, dated 2013)
Positions count from the first letter of the chain named.

How the values were obtained:
[1] = biological target: T1, wild-type, murine ferrochelatase (Mus musculus, UniProt P22315); assay: Fluorescence titration of NMPP binding (quenching of intrinsic protein fluorescence); settings: 10 mM Tris-acetate pH 8, 0.05% Tween-80, read-out: dissociation constant (Kd) of NMPP
T1 construct: In wild-type, murine, mature ferrochelatase, five tryptophan residues; penta-histidine tag (N); made in house; host or cells: E. coli BL21(DE3)
T1 sequence (P22315 54-422): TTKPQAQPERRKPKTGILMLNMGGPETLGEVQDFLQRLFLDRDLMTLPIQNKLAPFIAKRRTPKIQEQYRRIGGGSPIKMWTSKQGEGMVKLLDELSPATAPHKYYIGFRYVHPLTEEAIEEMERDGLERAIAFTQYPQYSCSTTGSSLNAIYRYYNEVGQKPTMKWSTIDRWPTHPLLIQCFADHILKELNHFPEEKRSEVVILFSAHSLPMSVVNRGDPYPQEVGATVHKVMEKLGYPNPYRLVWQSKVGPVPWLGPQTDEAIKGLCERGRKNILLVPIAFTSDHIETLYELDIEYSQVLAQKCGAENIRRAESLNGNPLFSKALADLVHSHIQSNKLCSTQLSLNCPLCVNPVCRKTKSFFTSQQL
Experimental: (§1) Aliquots of NMPP were added to a solution of enzyme in 10 mM Tris-acetate, pH 8 containing 0.05% Tween-80 and incubated on ice for 1 hr. The intrinsic protein fluorescence was monitored at 331 nm (λex=283 nm). The Kd value for NMPP was determined by fitting the data to Equation 3. The enzymes used in each set were: A. wild-type ferrochelatase (40 nM); B. P255R (250 nM); C. P255G (120 nM).
(§2) The equilibrium constant for NMPP binding to ferrochelatase could be determined from the change in intrinsic protein fluorescence upon ligand addition. […]
(§3) Fluorescence Titration Measurements. Equilibrium fluorescence measurements were made using a Shimadzu RF-5301PC fluorimeter at 23° C. with excitation and emission wavelengths at 283 nm and 331 nm, respectively. The decrease in protein fluorescence, due to NMPP binding, was monitored. […] In a typical titration experiment, aliquots of the NMPP stock were added to the protein solution and, upon incubation on ice for 1 h, the quenching in fluorescence was monitored as described above. […] The observed fluorescence intensity was plotted against NMPP concentration and the dissociation constant of NMPP for ferrochelatase was determined using the least-squares fit of each data set to equation 3 by nonlinear regression: […]

[2] = biological target: T2, ferrochelatase variant P255R (Mus musculus, UniProt P22315, P308R); assay: as above; design: species or system murine; settings: 10 mM Tris-acetate pH 8, 0.05% Tween-80, read-out: dissociation constant (Kd) of NMPP
T2 construct: In wild-type, murine, mature ferrochelatase, five tryptophan residues; penta-histidine tag (N); made in house; host or cells: E. coli BL21(DE3)
T2 sequence (P22315 54-422 P308R): T1 sequence (P22315 54-422) with P255R
Experimental: as §1, §2, §3

[3] = biological target: T3, ferrochelatase variant P255G (Mus musculus, UniProt P22315, P308G); assay: as above; design: species or system murine; settings: 10 mM Tris-acetate pH 8, 0.05% Tween-80, read-out: dissociation constant (Kd) of NMPP
T3 construct: In wild-type, murine, mature ferrochelatase, five tryptophan residues; penta-histidine tag (N); made in house; host or cells: E. coli BL21(DE3)
T3 sequence (P22315 54-422 P308G): T1 sequence (P22315 54-422) with P255G
Experimental: as §1, §2, §3

ferrochelatase = settings: background statement, potent inhibitor of ferrochelatase; cited from earlier work

Kd [1]: 9 ± 5 nM | Kd [2]: 160 ± 70 nM | Kd [3]: 300 ± 100 nM
Substance: N-methyl protoporphyrin [NMPP]
Ki (ferrochelatase): ~10 nM
